The results in this text go back to patent US8324161B2, “Leukotriene B4 binding soluble lipocalin receptor from ixodes ricinus” (Universite Libre de Bruxelles, priority 2007, dated 2012).

For one assay, the system named is LTB4-LIR polypeptide. Nature of the assay: inhibition by eicosanoids of [3H]LTB4 binding to LTB4-LIR polypeptide. On the set-up: species or system Ixodes ricinus. Particulars: for inhibition of 1 nM [3H]LTB4 binding to LTB4-LIR polypeptide: eicosanoid at a concentration of 10 μM, FIG. 4. The procedure:
(§1) The polypeptide according to the invention was therefore tested for its ability to bind specifically leukotriene B4. The affinity-purified LTB4-LIR polypeptide was tested in binding assays according to a previously described method (Warlow, R. S., and Bernard, C. C. A. (1987). Solubilization and characterization of moderate and high affinity histamine binding sites on human blood mononuclear cells. Mol. Immunol. 24, 27-37).
(§2) The inhibition by various eicosanoids of [3H]LTB4 binding to LTB4-LIR polypeptide was also examined. […] Next, various concentrations of LTA4, LTB4, LTC4, LTD4, HETE, HPETE, and LXA4 was tested in the competition with [3H]LTB4 binding to LTB4-LIR polypeptide.

A further assay has as its system neutrophils. Nature of the assay: transendothelial migration of neutrophils stimulated by LTB4 through Ea.hy926 endothelial cell layer. It counts as cell-based, human. Particulars: 2 hours at 37° C.; neutrophils from three volunteers, in triplicate; FIG. 6. The procedure: The principal LTB4 function is the chemo-attraction of neutrophils to the sub-endothelial spaces of an inflammation site. One step of this process is the diapedesis of the neutrophils through the endothelial cells layer. The chemo-attractant effect of LTB4-LIR6 was tested by using a model of transendothelial migration of neutrophils.
Ea.hy926 cells, an endothelial cell line derived from the human umbilical vein, were used. These cells closely resemble HUVEC and maintain several characteristics of differentiated endothelium. The cells were allowed to reach confluence in chamber containing DMEM (Cambrex, Vervier, Belgium), supplemented with 10% Fetal Calf Serum, 2 mM L-Glutamine, 100 U/ml penicillin, 100 μg/ml streptomycin and HAT ([…], 0.4 μM aminopterin, 16 μM thymidine). […]
In the transendothelial assay, the protocol described by Nohgawa et al. was used (Nohgawa M., Sasada M., Maeda A., Asagoe K., Harakawa N., Takano K., Yamamoto K., Okuma M. Leukotriene B4-activated human endothelial cells promote transendothelial neutrophil migration. J Leuc. Biol, 1997 (62): 203-209). […] After 2 hours at 37° C., the upper chambers were removed and cells in lower chambers were counted. […]

Assay [1] can be described thus: saturation binding of [3H]LTB4 to affinity-purified LTB4-LIR polypeptide. The protocol:
as §1, §2

As for `CCCCC/C=C\C[C@@H](O)/C=C/C=C\C/C=C\CCCC(=O)O` [12(R)-HETE], in the assay with LTB4-LIR polypeptide, the “inhibition of 1 nM [3H]LTB4 binding to LTB4-LIR polypeptide” value (“inhibition of 1 nM [3H]LTB4 binding” for short) is recorded as “significant competitions”.
Consider `CCCCC/C=C\C[C@@H](O)/C=C/C=C/C=C\[C@@H](O)CCCC(=O)O` [LTB4, leukotriene B4], for which the “inhibition of 1 nM [3H]LTB4 binding” value in the assay with LTB4-LIR polypeptide is “significant competitions”. In addition, the “competition with [3H]LTB4 binding to LTB4-LIR polypeptide at various concentrations” value with LTB4-LIR polypeptide (various concentrations, FIG. 5) is recorded as “dose-dependent inhibition”.
For the molecule `CCCCC/C=C\C\C=C/C=C/C=C/[C@@H](SC[C@H](N)C(=O)NCC(=O)O)[C@@H](O)CCCC(=O)O` [LTD4], the “inhibition of 1 nM [3H]LTB4 binding” value in the assay with LTB4-LIR polypeptide is given as “significant competitions”.
On the same count and under the same terms, in the case of `CCCCC/C=C\C\C=C/C=C/C=C/[C@@H](SC[C@H](N)C(=O)O)[C@@H](O)CCCC(=O)O` [LTE4] it was “significant competitions”.

B1: LTB4-LIR polypeptide: Leukotriene B4 binding Lipocalin from Ixodes ricinus, amino acid sequence SEQ ID NO: 2, expressed with V5-6×His tag in a baculovirus system (protein, listed as Ixodes ricinus)
chain: MLRIAVVAALCCFGTGTVSRFQQNATERHYQELNSNLSKYQDAWKSNTENAEYVLAYRTFQDIERTRIRRCVSATLRYKNKKNRTTVHRLRYYNTRDRKWEGHSVLTRFNATPGYTVPNLMLMSSYHNESDEGRLYWTLYSQYGSCNIVRVERNGGCELWVRKGLQDYISSCCWFIYKSYCGNENYQIYNTTYCKRKGPE
modifications: V5-6×His tag
Turning to B1, the “effect on the transendothelial migration of neutrophils stimulated by LTB4” value in the assay with neutrophils was “significant dose-response effect”. Further, the Kd – broadly, the free concentration of one partner at which half of the binding sites on the other are occupied at equilibrium, for simple one-to-one binding – in assay [1] (FIG. 3, read-out: Kd value of specific and saturable binding for [3H]LTB4) is 0.4 nM. Also, in assay [1] (compared with literature Kd of human BLT1 (Yokomizo et al. 2001)), the “Kd lower than that for human BLT1 membrane receptor” value is “about 5 fold”. Moreover, in assay [1] (compared with literature Kd of human BLT2 (Yokomizo et al. 2001)), the “Kd lower than that for human BLT2 membrane receptor” value is recorded as “about 60 fold”.
